Measured values published in patent US20100041617A1, “Modulating mxa expression” (priority 2004, published 2010).

Legend:
Format in all cases: cell-based, human
[1] = test system: MxA promoter; assay: MxA promoter-luciferase reporter screen in stably transfected PC-3M cells; conditions: for Fold Increase in MxA Expression: MxA promoter-luciferase reporter in PC-3M cells, Control = 1.00; for expression of luciferase from the MxA promoter: PC-3M cells, DTP 1900 chemotype library screen, FIG. 8
Description: FIG. 7 outlines the high-throughput screen used for identifying small molecules that induce MxA expression. The MxA promoter was cloned upstream of luciferase, and transfected it into PC-3M human prostate carcinoma cells. A cell line that stably expressed this promoter-reporter construct was isolated. This cell line was used for testing whether test agents could induce MxA expression by screening for increased luciferase expression using a library of 1900 chemotypes. Interferon-α was a positive control for this assay. To develop a reporter system for drug screening, particularly for a high throughput assay procedure, the MxA promoter was cloned upstream of a nucleic acid segment that encoded luciferase (see FIG. 7). A nucleic acid encoding a eukaryotic selection marker (neomycin) was also inserted in the vector used for the reporter cassette. After transfecting this construct into human prostate carcinoma cells, a cell line that stably maintained the MxA reporter gene was cloned. Test agents, including a library of small molecules (the DTP 1900 chemotype library) were screened to ascertain whether any of the test agents increased luciferase expression. Of the 1900 compounds tested, 5 compounds activated the MxA promoter and increased luciferase expression. […] Methods similar to those described in Example 4 were used to identify compounds that activate MxA expression.

[2] = test system: MxA protein; assay: Induction of MxA protein expression in PC-3-M prostate cancer cells by compounds; conditions: FIG. 9
Description: The five compounds that induced luciferase expression from the MxA were then tested to ascertain whether these compounds could also induce MxA protein expression and inhibit motility of PC-3-M prostate cancer cells. Each of the compounds could do so (FIGS. 9 and 10).

[3] = test system: PC-3M cells; assay: Cell migration (motility) assay through pores of a PET membrane, PC-3M cells; conditions: for motility of PC-3M cells: FIG. 10
Description: Effect of MxA on motility of PC-3M. […] It has been reported that type I IFN could reduce cell motility (Brouty-Boyé and Zetter, 1980), one component of metastasis. To test whether PC-3 and PC-3M cells differed in motility, these two cell lines were subjected to a cell migration assay that measured the ability of cells to migrate through pores in a polyethylene terephthalate (PET) membrane. The five compounds that induced luciferase expression from the MxA were then tested to ascertain whether these compounds could also induce MxA protein expression and inhibit motility of PC-3-M prostate cancer cells. Each of the compounds could do so (FIGS. 9 and 10).

[4] = test system: MxA protein; assay: MxA protein induction by IFN-α, anti-MxA immunostaining, PC-3 cells; conditions: 24 hours, 1000 international units of IFN-α per ml, FIG. 2A
Description: (§1) PC-3 (Figure A1-4) and PC-3M (FIG. 2B) cells were grown for 24 hours on cover slips in the presence or absence of 1000 international units of IFN-α ml^1. The cells were then fixed, permeabilized, stained with monoclonal anti-MxA and Cy-3-conjugated goat anti-mouse Ig antibody and counterstained with DAPI. Immunofluorescence was visualized with a Zeiss Axiophot microscope with a 40× objective, and the images were captured on an Optronics CCD camera.
(§2) Induction of MxA expression by interferon. To determine whether IFN-α can induce MxA expression in PC-3 and PC-3M cells, cells were treated with recombinant IFN-α and subjected to immunohistochemical analysis using anti-MxA antibody and DAPI nuclear counterstaining to locate individual cells (FIG. 2). Consistent with the western blot result, this assay detected MxA protein only in untreated PC-3 and not in untreated PC-3M cells (compare upper left panels in FIGS. 2A and 2B). […] Western blotting (not shown) confirmed the IFN did induce increased MxA protein expression in both cell lines.

[5] = test system: MxA protein; assay: MxA protein induction by IFN-α, anti-MxA immunostaining, PC-3M cells; conditions: 24 hours, 1000 international units of IFN-α per ml, FIG. 2B
Description: as §1, §2

[6] = test system: PC-3 cells; assay: Cell migration (motility) assay through pores of a PET membrane, PC-3 cells; conditions: 1000 IU ml^−1 IFN-α, FIG. 3A
Description: FIG. 3A graphically illustrates the motility of PC-3M and PC-3 cells, before and after exposure to 1000 IU ml^−1 IFN-α. Mean values of percent of control PC-3M mobility are shown as bar graphs with mean percentages indicated above each bar. Each value represents the mean of two independent triplicate determinations. Error bars show range of determinations.
Effect of MxA on motility of PC-3M. […] It has been reported that type I IFN could reduce cell motility (Brouty-Boyé and Zetter, 1980), one component of metastasis. To test whether PC-3 and PC-3M cells differed in motility, these two cell lines were subjected to a cell migration assay that measured the ability of cells to migrate through pores in a polyethylene terephthalate (PET) membrane.

| Compound | Fold Increase in MxA Expression [1] | other results |
| --- | --- | --- |
| CC(C)CCc1c(Cl)nc(Cl)nc1Cl [Compound 2] | 1.03 fold |  |
| O=S(=O)(c1cccc(N=C=S)c1)c1cccc(N=C=S)c1 [Compound 3] | 1.11 fold |  |
| CN1CCN(CCNc2ccc(CO)c3sc4ccccc4c(=O)c23)CC1 [Compound 4] | 1.32 fold |  |
| CCCS(=O)(=O)Nc1ccc(Nc2c3ccccc3nc3ccccc23)c(OC)c1.CS(=O)(=O)O [Compound 6] | 3.65 fold |  |
| Cc1cc(=O)oc2cc(OC(=O)Nc3ccc(Cl)c(Cl)c3)ccc12 [Compound 7] | 1.18 fold |  |
| COc1cc2c3c(n(C)c(=O)c2cc1OC)-c1cc2c(cc1C3=O)OCO2 [Compound 8] | 1.71 fold |  |
| COC1CC(C)C(OC)c2cc(O)cc(c2O)NC(=O)/C(C)=C\C=C/C(C)C(OC(N)=O)/C(C)=C\C(C)C1OC (stereo not drawn) [Compound 10] | 0.40 fold |  |
| CS(=O)(=O)CS(=O)(=O)OCCCl [Compound 11] | 1.11 fold |  |
| CO[C@H]1[C@H](O)[C@@H](O)[C@H](n2c3c(Cl)cccc3c3c4c(c5c6cccc(Cl)c6[nH]c5c32)C(=O)NC4=O)O[C@@H]1CO [Compound 12] | 1.46 fold |  |
| COc1cc2c(cc1OC)C1C(=O)c3cc(OS(C)(=O)=O)c(OC)cc3C1N(C)C2=O (stereo not drawn) [Compound 13] | 2.15 fold |  |
| CCN(CC)CCCNc1nccc2c(C)c3[nH]c4ccncc4c(=O)c3cc12 [Compound 15] | 2.15 fold |  |
| COC1C(O)C(C)OC(OC2C(Oc3cccc4c(O)c5c(=O)oc6ccc(C)c7c(=O)oc(c34)c5c67)OC(C)C3O[C@H](c4ccccc4)OC32)C1O (stereo partly drawn) [Compound 16] | 2.25 fold |  |
| N/N=C(/C(=O)Nc1cccc(Cl)c1)C(C(=O)c1ccc(O)cc1O)C1OC(=O)c2ccccc21 (stereo not drawn) [Compound 17] | 1.05 fold |  |
| Cc1cccc(NC(=O)C(=O)C(C2OC(=O)c3ccccc32)[N+](=O)[O-])c1C (stereo not drawn) [Compound 18] | 0.79 fold |  |
| O=c1c2cc(O)ccc2n2nnc3ccc(NCCNCCO)c1c32 [Compound 19] | 2.08 fold |  |
| COc1cc(C2C(Cl)C(=O)N2NC(=O)c2ccc(N)cc2)ccc1O (stereo not drawn) [Compound 20] | 1.37 fold |  |
| COc1cc(C2C(Cl)C(=O)N2NC(=O)c2ccc(N)cc2)cc(Br)c1O (stereo not drawn) [Compound 21] | 1.64 fold |  |
| Cc1c(C(=O)/C=C/c2c(Cl)cccc2Cl)c(=O)n(-c2ccccc2)n1C [Compound 22] | 0.32 fold |  |
| CN(CCCn1ccnc1[N+](=O)[O-])CCCn1ccnc1[N+](=O)[O-] [Compound 23] | 1.28 fold |  |

| Compound | Fold Increase in MxA Expression [1] | other results |
| --- | --- | --- |
| C=[N+](CNC(=O)CNC(=O)C(Cc1ccc([N+](=O)[O-])cc1)NC(=O)OC(C)(C)C)C(=O)CNC(=O)C(Cc1ccc([N+](=O)[O-])cc1)NC(=O)OC(C)(C)C (stereo not drawn) [Compound 24] | 0.84 fold |  |
| CC(=O)C1=C(N=[N+]=[N-])c2cccc3cccc(c23)C1=O [Compound 26] | 0.95 fold |  |
| O=[N+]([O-])c1ccc(N2N=C(c3ccc4ccccc4c3O)CC2c2ccc(Cl)cc2Cl)c([N+](=O)[O-])c1 (stereo not drawn) [Compound 27] | 2.25 fold |  |
| O=C1CC(=O)NC(=NN2C(=O)CSC2c2ccc(Cl)cc2)N1 (stereo not drawn) [Compound 28] | 1.40 fold |  |
| CC(C)(Oc1ccc(Cl)cc1)C(=O)N(C(=O)N1CCCCC1)c1ccccc1 [Compound 29] | 1.03 fold |  |
| Cc1ccc2c(c1)C=CC1(O2)N(c2ccccc2)C(=S)OC1(C)C (stereo not drawn) [Compound 30] | 0.85 fold |  |
| CC1(C)OC(=S)N(c2ccccc2)C12C=Cc1cc3ccccc3cc1O2 (stereo not drawn) [Compound 31] | 0.91 fold |  |
| CCN(CC)CCNc1ccc2nnn3c4ccc(OC(C)=O)cc4c(=O)c1c23 [Compound 32] | 2.64 fold |  |
| CCOC(=O)[C@@H]1ON2O[C@H](OC3CCCCC3c3ccccc3)C[C@H]3OC(=O)[C@@H]1C32 (stereo partly drawn) [Compound 33] | 1.03 fold |  |
| CCOC(=O)c1cccc(NC(=O)CBr)c1 [Compound 34] | 0.27 fold |  |
| C=CC[C@H]1[C@H](O[Si](C)(C)C(C)(C)C)C=CC(=O)[C@@H]1CC(=O)OCC [Compound 35] | 0.68 fold |  |
| O=C1C(=C(C(=O)c2ccccc2)C(=O)c2ccccc2)OC(c2ccccc2)=C1C(=O)c1ccccc1 [Compound 36] | 1.62 fold |  |
| COC1C(O)C(C)OC(CCOC2C(Oc3cccc4c(O)c5c(=O)oc6ccc(C)c7c(=O)oc(c34)c5c67)OC(C)C(O)C2O)C1O (stereo not drawn) [NSC 5159, 10-{3-[2-(3,5-Dihydroxy-4-methoxy-6-methyl-tetrahydro-pyran-2-yl)-ethoxy]-4,5-dihydroxy-6-methyl-tetrahydro-pyran-2-yloxy}-6-hydroxy-1 methyl-benzo[h]chromeno[5,4,3-cde]chromene-5,12-dione] |  | expression of luciferase from the MxA promoter [1]: induce expression of luciferase; induction of MxA protein expression [2]: induce expression of MxA protein; motility of PC-3M cells [3]: decrease the motility |
| Cc1cc(Cc2cc(C)c(N)cc2N)c(N)cc1N [NSC 7215, methylene-bis(2,4-amino-5-methyl-benzene)] |  | expression of luciferase from the MxA promoter [1]: induce expression of luciferase; induction of MxA protein expression [2]: induce expression of MxA protein; motility of PC-3M cells [3]: decrease the motility |
| O=[N+]([O-])c1ccc(Nc2nc3ccccc3s2)cc1 [NSC 34444, benzothiazol-2-yl-(4-nitro-phenyl)-amine] |  | expression of luciferase from the MxA promoter [1]: induce expression of luciferase |
| COc1ccc2cc(COCCC(=O)O)ccc2c1 [NSC 46669, 3-(6-Methoxy-naphthalen-2-ylmethoxy)-propionic acid] |  | expression of luciferase from the MxA promoter [1]: induce expression of luciferase; induction of MxA protein expression [2]: induce expression of MxA protein; motility of PC-3M cells [3]: decrease the motility |
| O=C(O)c1ccc(Oc2nc3ccccc3s2)cc1 [NSC 122335, 4-(benzothiazol-2-yloxy)-benzoic acid] |  | expression of luciferase from the MxA promoter [1]: induce expression of luciferase; induction of MxA protein expression [2]: induce expression of MxA protein; motility of PC-3M cells [3]: decrease the motility |
| IFN-α |  | PC-3M cell motility ([3]; 1000 IU ml^−1 IFN-α, FIG. 3A): reduced PC-3M cell motility to a level comparable to that of PC-3 cells; level of MxA protein after exposure to IFN-α [4]: increased substantially; level of MxA protein after exposure to IFN-α [5]: became detectable for the first time; PC-3 cell motility [6]: reduced its motility to levels below that seen when no IFN was present |
